# Reference: patent US12201632B2, “Levoketoconazole for treatment of congenital adrenal hyperplasia and primary aldosteronism” (Strongbridge Dublin Limited, priority 2018, dated 2025)
# Tested on: EAS associated adrenal hyperplasia no. 1 primary culture
# Experiment: Steroid profile by LC/MS-MS in EAS associated adrenal hyperplasia no. 1
# Type: cell-based, human
# Details: for 11-DOC absolute change vs ACTH stimulation with vehicle / 11-DOC percentage change vs ACTH stimulation with vehicle / 17-OHP absolute change vs ACTH stimulation with vehicle / 17-OHP percentage change vs ACTH stimulation with vehicle / Androstenedione absolute change vs ACTH stimulation with vehicle / Androstenedione percentage change vs ACTH stimulation with vehicle / Corticosterone absolute change vs ACTH stimulation with vehicle / Corticosterone percentage change vs ACTH stimulation with vehicle / Cortisol absolute change vs ACTH stimulation with vehicle / Cortisol percentage change vs ACTH stimulation with vehicle / DHEA absolute change vs ACTH stimulation with vehicle / DHEAS absolute change vs ACTH stimulation with vehicle / Prog absolute change vs ACTH stimulation with vehicle / Prog percentage change vs ACTH stimulation with vehicle / Testosterone absolute change vs ACTH stimulation with vehicle / Testosterone percentage change vs ACTH stimulation with vehicle: EAS associated adrenal hyperplasia no. 1, ACTH; for 11-DOC absolute change vs ACTH stimulation with vehicle / 11-DOC percentage change vs ACTH stimulation with vehicle / 17-OHP absolute change vs ACTH stimulation with vehicle / 17-OHP percentage change vs ACTH stimulation with vehicle / Androstenedione absolute change vs ACTH stimulation with vehicle / Androstenedione percentage change vs ACTH stimulation with vehicle / Corticosterone absolute change vs ACTH stimulation with vehicle / Corticosterone percentage change vs ACTH stimulation with vehicle / Cortisol absolute change vs ACTH stimulation with vehicle / Cortisol percentage change vs ACTH stimulation with vehicle / DHEA absolute change vs ACTH stimulation with vehicle / DHEAS absolute change vs ACTH stimulation with vehicle / Prog absolute change vs ACTH stimulation with vehicle / Prog percentage change vs ACTH stimulation with vehicle / Testosterone absolute change vs ACTH stimulation with vehicle / Testosterone percentage change vs ACTH stimulation with vehicle / 11-DOC absolute change vs control / 11-DOC percentage change vs control / 17-OHP absolute change vs control / 17-OHP percentage change vs control / Androstenedione absolute change vs control / Androstenedione percentage change vs control / Corticosterone absolute change vs control / Corticosterone percentage change vs control / Cortisol absolute change vs control / Cortisol percentage change vs control / DHEA absolute change vs control / DHEAS absolute change vs control / Prog absolute change vs control / Prog percentage change vs control / Testosterone absolute change vs control / Testosterone percentage change vs control: 3 days; for 11-DOC absolute change vs control / 11-DOC percentage change vs control / 17-OHP absolute change vs control / 17-OHP percentage change vs control / Androstenedione absolute change vs control / Androstenedione percentage change vs control / Corticosterone absolute change vs control / Corticosterone percentage change vs control / Cortisol absolute change vs control / Cortisol percentage change vs control / DHEA absolute change vs control / DHEAS absolute change vs control / Prog absolute change vs control / Prog percentage change vs control / Testosterone absolute change vs control / Testosterone percentage change vs control: EAS associated adrenal hyperplasia no. 1, Basal
# Protocol: To obtain primary cultures, adrenal specimens (adrenocortical adenomas, adrenal hyperplasias and adrenocortical carcinomas) were collected after adrenalectomy at the department of Surgery, Erasmus University Medical Center, Rotterdam, the Netherlands, between April 2016 and May 2018. The study was conducted under guidelines that have been approved by the Medical Ethics Committee of the Erasmus Medical Center and informed consent was obtained from all patients. Immediately after surgery, specimens were minced into small pieces of 2-3 mm^3, washed in culture medium and centrifuged for 5 minutes at 600 g. The tissue was stored overnight in culture medium at 4° C., where after the tissue was centrifuged again and the supernatant was removed. Fragments were dissociated using 10-25 ml collagenase type 1 (2 mg/ml: Sigma-Aldrich), followed by incubation at 37° C. for up to two hours. Ficoll (GE healthcare) density gradient separation was used once or twice as required in order to separate contaminating red blood cells from the tumor cells. Cell viability and cell amount were counted by trypan blue exclusion. Dissociated cells were plated at a density of 10^5 cells per well. ACTH-secreting corticotroph pituitary adenoma tissue from patients with Cushing's disease (n=2) was available after transsphenoidal surgery. Single-cell suspensions of the pituitary adenoma tissues were prepared as previously described in detail.
# Primary culture conditions for primary cultures were similar as described in the section ‘cell culture and compounds’, but with small adjustments: ACTH was used at a concentration of 85 pM (250 pg/mL), treatment was started 3-4 days after plating of the cells and cells were incubated for 3 days, and; for pituitary primary cultures, levoketoconazole and racemic ketoconazole were only tested at a concentration of 1 μM. Owing to a limited number of cells obtained from the specimens, not all experiments were carried out in every primary culture.
# Cortisol concentrations were measured in the supernatant using a chemiluminescence immunoassay system (Immulite 2000XPi; Siemens DPC Inc., Los Angeles, Calif., USA). In addition, we carried out multi-steroid analysis by liquid chromatography/mass spectrometry (LC/MS-MS) to accurately quantify androstenedione, corticosterone, cortisol, 11-deoxycortisol, DHEA, DHEAS, progesterone, 17-hydroxyprogesterone, and testosterone. Concentrations that were tested on the LC/MS-MS were closest to 50% inhibition or maximal inhibition of cortisol as determined by the immunoassay. Steroids were quantified with respect to a calibration series, with internal standards. Steroids were quantified on a Xevo TQS LC-MS/MS (Waters Chromatography).
# Statistical analysis was performed using Graphpad Prism 6.0 (Graphpad Software, San Diego, CA). Non-linear regression curve fitting program was used to calculate the half maximal inhibitory concentrations (IC50) on cortisol production. Effects of both compounds on the steroid profile were measured as absolute change compared to control and compared using the Student's t-test. When assessing differences between effects of both compounds, the percentage change was evaluated and compared in order to correct for differences in the vehicle treated control cells. Values of P<0.05 were considered statistically significant and data are presented as mean SEM.
compound,measurement,setting,value
"CC(=O)N1CCN(c2ccc(OCC3COC(Cn4ccnc4)(c4ccc(Cl)cc4Cl)O3)cc2)CC1 (racemic) [racemic ketoconazole, Ketoconazole]",11-DOC absolute change vs ACTH stimulation with vehicle,0.05 μM,+76.63 nmol/l
same,11-DOC percentage change vs ACTH stimulation with vehicle,0.05 μM,(+25%**)
same,17-OHP absolute change vs ACTH stimulation with vehicle,0.05 μM,+8.133 nmol/l
same,17-OHP percentage change vs ACTH stimulation with vehicle,0.05 μM,(+52%)
same,Androstenedione absolute change vs ACTH stimulation with vehicle,0.05 μM,-7.475 nmol/L
same,Androstenedione percentage change vs ACTH stimulation with vehicle,0.05 μM,(−39%)
same,Corticosterone absolute change vs ACTH stimulation with vehicle,0.05 μM,+105.7 nmol/l
same,Corticosterone percentage change vs ACTH stimulation with vehicle,0.05 μM,(+31%)
same,Cortisol absolute change vs ACTH stimulation with vehicle,0.05 μM,-62.25 nmol/L
same,Cortisol percentage change vs ACTH stimulation with vehicle,0.05 μM,−11%
same,DHEA absolute change vs ACTH stimulation with vehicle,0.05 μM,<LLQ
same,DHEAS absolute change vs ACTH stimulation with vehicle,0.05 μM,<LLQ
same,Prog absolute change vs ACTH stimulation with vehicle,0.05 μM,+3.425 nmol/l
same,Prog percentage change vs ACTH stimulation with vehicle,0.05 μM,+96%
same,Testosterone absolute change vs ACTH stimulation with vehicle,0.05 μM,-0.1750 nmol/L
same,Testosterone percentage change vs ACTH stimulation with vehicle,0.05 μM,(−28%)
same,Cortisol percentage change vs ACTH stimulation with vehicle,"0.05 μM, listed as RK",(−11%*)
same,Prog percentage change vs ACTH stimulation with vehicle,"0.05 μM, listed as RK",(+96%**)
same,11-DOC absolute change vs ACTH stimulation with vehicle,5 μM,-402.7 nmol/L
same,11-DOC percentage change vs ACTH stimulation with vehicle,5 μM,(−99%)
same,17-OHP absolute change vs ACTH stimulation with vehicle,5 μM,-28.44 nmol/L
same,17-OHP percentage change vs ACTH stimulation with vehicle,5 μM,(−90%)
same,Androstenedione absolute change vs ACTH stimulation with vehicle,5 μM,-14.79 nmol/L
same,Androstenedione percentage change vs ACTH stimulation with vehicle,5 μM,(−98%)
same,Corticosterone absolute change vs ACTH stimulation with vehicle,5 μM,-397.6 nmol/L
same,Corticosterone percentage change vs ACTH stimulation with vehicle,5 μM,(−100%)
same,Cortisol absolute change vs ACTH stimulation with vehicle,5 μM,-643.5 nmol/L
same,Cortisol percentage change vs ACTH stimulation with vehicle,5 μM,(−100%)
same,DHEA absolute change vs ACTH stimulation with vehicle,5 μM,<LLQ
same,DHEAS absolute change vs ACTH stimulation with vehicle,5 μM,<LLQ
same,Prog absolute change vs ACTH stimulation with vehicle,5 μM,+39.86 nmol/l
same,Prog percentage change vs ACTH stimulation with vehicle,5 μM,(+1292%)
same,Testosterone absolute change vs ACTH stimulation with vehicle,5 μM,-0.4350 nmol/L
same,Testosterone percentage change vs ACTH stimulation with vehicle,5 μM,(−85%)
same,11-DOC absolute change vs control,0.05 μM,-62.23 nmol/L
same,11-DOC percentage change vs control,0.05 μM,(−27%)
same,17-OHP absolute change vs control,0.05 μM,+0.6833 nmol/l
same,17-OHP percentage change vs control,0.05 μM,(+7.5%)
same,Androstenedione absolute change vs control,0.05 μM,-5.850 nmol/L
same,Androstenedione percentage change vs control,0.05 μM,(−55%)
same,Corticosterone absolute change vs control,0.05 μM,-68.60 nmol/L
same,Corticosterone percentage change vs control,0.05 μM,(−32%)
same,Cortisol absolute change vs control,0.05 μM,-86.78 nmol/L
same,Cortisol percentage change vs control,0.05 μM,(−57%)
same,DHEA absolute change vs control,0.05 μM,<LLQ
same,DHEAS absolute change vs control,0.05 μM,<LLQ
same,Prog absolute change vs control,0.05 μM,+4.475 nmol/l
same,Prog percentage change vs control,0.05 μM,(+108%)
same,Testosterone absolute change vs control,0.05 μM,-0.1500 nmol/L
same,Testosterone percentage change vs control,0.05 μM,(−32%)
same,11-DOC absolute change vs control,5 μM,-270.7 nmol/L
same,11-DOC percentage change vs control,5 μM,(−98%)
same,17-OHP absolute change vs control,5 μM,-15.07 nmol/L
same,17-OHP percentage change vs control,5 μM,(−92%)
same,Androstenedione absolute change vs control,5 μM,-8.219 nmol/L
same,Androstenedione percentage change vs control,5 μM,(−94%)
same,Corticosterone absolute change vs control,5 μM,-166.5 nmol/L
same,Corticosterone percentage change vs control,5 μM,(−98%)
same,Cortisol absolute change vs control,5 μM,-165.2 nmol/L
same,Cortisol percentage change vs control,5 μM,(−99%)
same,DHEA absolute change vs control,5 μM,<LLQ
same,DHEAS absolute change vs control,5 μM,<LLQ
same,Prog absolute change vs control,5 μM,+19.89 nmol/l
same,Prog percentage change vs control,5 μM,(+537%***)
same,Testosterone absolute change vs control,5 μM,-0.2688 nmol/L
same,Testosterone percentage change vs control,5 μM,(−66%)
same,total change of steroids,"EAS associated adrenal hyperplasia no. 1, basal condition",-218.5 nmol/L
same,total sum of change of the steroids: increase,"EAS associated adrenal hyperplasia no. 1, under ACTH stimulation",124.0 nmol/L
